Data: patent publication US7091185B2, “Periodic antimicrobial peptides” (Dow Global Technologies Inc., priority 2003, dated 2006)
Read-outs that look alike come from different tables or passages of the source. Where no end group is shown, it is not given here.

What was measured:
Red blood cell toxicity = format: cell-based; settings: red blood cells (RBC); RBCs; concentration required for 50% toxicity; read-out: TX50
Red blood cells (RBC) = assay: Red blood cell toxicity; format: cell-based
HeLa cell line = assay: HeLa MTS cellular reduction toxicity assay; format: cell-based; settings: for TX50: 24 h, MTS
Summary of the method: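 TX50, the concentration giving 50% toxicity, obtained by sigmoidal fitting of relative toxicity versus peptide-free cells. Readout: MTS reduction with PMS, 1 h, A490. Peptides applied in 2-fold serial dilutions to 48 h HeLa monolayers for 24 h at 37 °C.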

Cr. Neoformans 32045 = format: cell-based
Summary of the method: (§1)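 Broth microdilution per NCCLS, adapted for fungi with Sabouraud Dextrose Broth; KFAK-repeat peptide multimers in two-fold dilutions from 1,000 to 1 μg/ml. Growth by OD620 after overnight incubation; IC50 by sigmoidal fit, in duplicate, repeated at least twice.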

C. albicans 10231 = format: cell-based; settings: 10231
Summary of the method: as §1

P. aeruginosa = settings: background statement; cited from earlier work
T. vaginalis = settings: background statement; cited from earlier work
[1] = system: herpes simplex virus (HSV); settings: mixed with a modified lipid octyl-glycerol; compared with magainins and defensins; cited from earlier work
[2] = system: rat prostate adenocarcinoma; settings: rat prostate adenocarcinoma model, cited from earlier work
[3] = system: S. aureus (methicillin resistant) ATCC 33591
E. coli ATCC 2592 = settings: ATCC 2592
P. aeruginosa ATCC 10145 = settings: ATCC 10145
C. trachomatis = settings: background statement; cited from earlier work
Staph. aureus ATCC 6538 = assay: HMARQ biocidal kill activity; format: cell-based; settings: Staph. aureus ATCC 6538 (gram+)
Summary of the method: (§2)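 Values are biocide ppm (μg/mL) needed for 3.5 log reduction relative to untreated controls after 15 min or 24 h exposure. Organisms were added to biocide-containing sample matrix (200–300 μL, mixed by vortex), then enumerated by most-probable-number 1:10 dilution series in TSB/resazurin.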

P. aeruginosa ATCC 15442 [4] = assay: HMARQ biocidal kill activity; format: cell-based; settings: P. aeruginosa ATCC 15442 (gram−)
Summary of the method: as §2

[5] = system: P. aeruginosa ATCC 15442 / Staph. aureus ATCC 6538; assay: HMARQ biocidal testing; format: cell-based; settings: summary of Table 6; peptides too small to span the membrane
Protocol: Biocide efficacy protocols were improved by reducing sample size, organizing the test material into an array format, implementing most probable number (MPN) quantitation and using multi-channel liquid handling equipment. We call the new method “high-throughput microanalysis and rapid quantitation” or “HMARQ.” HMARQ is directly applicable to current industrial efficacy tests such as multi-cycle preservation challenge or time course disinfection tests.
HMARQ is performed in a high throughput plate, such as 96-well microtiter plates. Typical sample volumes have been reduced down to 200 to 300 μL, but can be reduced further if desired. In these samples, no more than 10% of the total volume will be composed of the biocide and organism solution, and all non-matrix additions are normalized for all samples.
The sample matrix is first inoculated with the desired concentration of microorganisms. Inoculated sample matrix is then added to the 96-well assay block containing the biocide(s) under study. Each sample block contains biocide treated samples and untreated control samples (lacking biocide). Once the samples are prepared, the entire block of samples is mixed by vortexing until each sample is homogenous. In general, the study starts once mixing is complete, and samples are removed as required for the analysis. When Kill Time testing (rate of biocide activity) is performed, the microorganisms are added after biocide addition to the samples, allowing for rapid mixing and analysis.
Bacterial concentration (CFU/mL) is determined using the most probable number method (MPN). […] A serial 1:10 dilution will yield a bacterial concentration resolution of 1 log and the log reduction is determined by comparing the concentration of organisms in a treated sample to the concentration of organisms in untreated samples. […]
Using the HMARQ test described above, periodic peptides were generated and tested for Kill Activity. […] Units are expressed as ppm (μg/mL) needed for 3.5 log kill at 15 min or 24 hour and the results are shown below.

P. aeruginosa ATCC 15442 [6] = assay: HMARQ biocidal kill activity; format: cell-based; settings: P. aeruginosa ATCC 15442, 15 min, 3 log kill
[7] = S. aureus (methicillin resistant) 33591, gram+

| Substance | HC50 at 24 h (Red blood cell toxicity) | % kill at 250 μg/ml (Red blood cells (RBC); RBCs, 250 μg/ml) | % kill at 500 μg/ml (HeLa cell line) | TX50 (HeLa cell line) | IC50 (Cr. Neoformans 32045) | MIC (Cr. Neoformans 32045) | IC50 (C. albicans 10231) | MIC (C. albicans 10231) | IC50 ([3]; ATCC 33591) | MIC ([3]; ATCC 33591) | IC50 (E. coli ATCC 2592) | MIC (E. coli ATCC 2592) | IC50 (P. aeruginosa ATCC 10145) | ppm needed for 3.5 log kill at 15 min (Staph. aureus ATCC 6538) | ppm needed for 3.5 log kill at 24 hr (Staph. aureus ATCC 6538) | ppm needed for 3.5 log kill at 15 min (P. aeruginosa ATCC 15442 [4]) | ppm needed for 3.5 log kill at 24 hr (P. aeruginosa ATCC 15442 [4]) | biocidal activity (statement) [5] | % kill at 250 μg/ml (Red blood cells (RBC)) | MIC (P. aeruginosa ATCC 10145) | other results |
| --- | --- | --- | --- | --- | --- | --- | --- | --- | --- | --- | --- | --- | --- | --- | --- | --- | --- | --- | --- | --- | --- |
| FAKKFAKKFKKFAKKFAKFAFAF [D2A21, reference compound] | 52 µg/mL | 93.1% | 7.1% | 16.9 µg/mL | 21.9 µg/mL | 62 to 125 µg/mL | 121.5 µg/mL | >250 µg/mL | 11.9 µg/mL | 62 to 125 µg/mL | 4.5 µg/mL | 8 to 16 µg/mL | 11.3 µg/mL | – | – | – | – | – | – | – | activity (statement) (P. aeruginosa): has activity against; activity (statement) (T. vaginalis): has activity against; activity against HSV compared with other peptides [1]: better than five other peptides; survival rate ([2]; improved from 25%, preliminary results (Arlotti 2001)): 75%; toxicities [2]: not causing any significant toxicities; activity (statement) (C. trachomatis): has activity against |
| FKA FKA (FKAFKA; Periodic Peptide) [FKA(2)] | – | – | – | – | – | – | – | – | – | – | – | – | – | 16 ppm | 500 ppm | >500 ppm | 125 ppm | demonstrate biocidal activity | – | – | – |
| FKA FKA FKA FKA (FKAFKAFKAFKA; Periodic Peptide) [FKA(4)] | – | – | – | – | – | – | – | – | – | – | – | – | – | 4 ppm | 250 ppm | >500 ppm | 125 ppm | demonstrate biocidal activity | – | – | – |
| LK LK (LKLK; Periodic Peptide) [LK(2)] | – | – | – | – | – | – | – | – | – | – | – | – | – | >500 ppm | 16 ppm | >500 ppm | 250 ppm | demonstrate biocidal activity | – | – | – |
| LKLKLKLKLKLKLKLKLKLKLKLK [LK (12), LK LK LK LK LK LK LK LK LK LK LK LK] | > 500 µg/mL | – | 60.0% | 49 µg/mL | 22 µg/mL | 32 to 62 µg/mL | 175 µg/mL | 250 to 500 µg/mL | 85 µg/mL | >250 µg/mL | 23 µg/mL | 62 to 125 µg/mL | 41 µg/mL | 4 ppm | 8 ppm | – | 4 ppm | – | 35% | 45 µg/mL | ppm at 15 min, cell marked (3 log) (P. aeruginosa ATCC 15442 [6]): 16 (3 log) ppm |
| LRLRLRLRLRLRLR [LR (7), LR LR LR LR LR LR LR] | > 500 µg/mL | 15% | 86.5% | >500 µg/mL | 1.8 µg/mL | 4 to 8 µg/mL | 182 µg/mL | 250 to 500 µg/mL | – | – | 15 µg/mL | 31 to 62 µg/mL | 109 µg/mL | 31 ppm | 7.8 ppm | >63 ppm | 4 ppm | – | – | 125 µg/mL | IC50 [3, 7]: 90 µg/mL; MIC [3, 7]: 250 to 500 µg/mL |
| LRLRLRLRLRLRLRLRLR [LR (9), LR LR LR LR LR LR LR LR LR] | > 500 µg/mL | 24% | 96.7% | >500 µg/mL | 21 µg/mL | 62 to 125 µg/mL | 195 µg/mL | 250 to 500 µg/mL | – | – | 70 µg/mL | >125 µg/mL | >250 µg/mL | 16 ppm | 8 ppm | – | 4 ppm | – | – | >250 µg/mL | IC50 [3, 7]: 28 µg/mL; MIC [3, 7]: 125 to 250 µg/mL; ppm at 15 min, cell marked (3 log) (P. aeruginosa ATCC 15442 [6]): 31(3 log) ppm |
| LRLRLRLRLRLRLRLRLRLRLR [LR (11), LR LR LR LR LR LR LR LR LR LR LR] | 450 µg/mL | – | 66.6% | >500 µg/mL | 3.3 µg/mL | 62 to 125 µg/mL | >500 µg/mL | >500 µg/mL | 39 µg/mL | 125 to 250 µg/mL | 96 µg/mL | 125 to 250 µg/mL | >250 µg/mL | 16 ppm | 8 ppm | – | 8 ppm | – | 41% | >250 µg/mL | – |
| RFARRFARRFARRFARRFARRFARRFAR [RFAR (7), RFAR RFAR RFAR RFAR RFAR RFAR RFAR] | 20 µg/mL | – | 12.4% | 106 µg/mL | 45 µg/mL | 62 to 125 µg/mL | 172 µg/mL | 250 to 500 µg/mL | 31 µg/mL | 125 to 250 µg/mL | 8 µg/mL | 32 to 62 µg/mL | 20 µg/mL | >500 ppm | 4 ppm | 63 ppm | 125 ppm | – | 100% | 62 µg/mL | – |
| RFARRFARRFARRFARRFARRFARRFARRFAR [RFAR (8), RFAR RFAR RFAR RFAR RFAR RFAR RFAR RFAR] | 17 µg/mL | – | 9.5% | 71 µg/mL | 32 µg/mL | 62 to 125 µg/mL | 144 µg/mL | 250 to 500 µg/mL | 20 µg/mL | 125 to 250 µg/mL | 12 µg/mL | 32 to 62 µg/mL | 30 µg/mL | >500 ppm | 125 ppm | >500 ppm | 16 ppm | – | 100% | 62 µg/mL | – |
